*1 amine or outer side, *2 acyl side, *3 side chain or, on linkers, in order; H or OH if unused. Where a SMILES comes first, the peptide text is derived from it. The star is where a group is joined. X1 = O=C(CCCC[C@@H]1SC[C@@H]2NC(=O)N[C@@H]21)NCCCOCCOCCOCCCN*; Suc = O=C(CCC(=O)[*:2])[*:1]
What was measured:
[1] = molecular target: SCRIB PDZ1; conditions: fragmentomic, isolated PDZ domain; cited from earlier work
Excerpt: Supplement sciadv.ade3828_table_s1.zip/sciadv.ade3828_table_s1.xlsx, sheet "nHU-WB_SP" | column: Domain-motif fragmentomic affinities (ProfAff)

[2] = molecular target: SCRIB PDZ3; conditions: fragmentomic, isolated PDZ domain; cited from earlier work
Excerpt: (§1) Supplement sciadv.ade3828_table_s1.zip/sciadv.ade3828_table_s1.xlsx, sheet "nHU-WB_SP"

[3] = molecular target: SCRIB PDZ2; conditions: fragmentomic, isolated PDZ domain; cited from earlier work
Excerpt: as §1

[4] = molecular target: isolated PDZ domain of SNX27; conditions: 10-mer PBM peptide vs isolated PDZ domain, holdup; cited from earlier work
[5] = system: DLG1_PDZ_1; assay: nHU-MS, DLG1_PDZ_1 bait, total Jurkat extracts (Exploris MS); assay type: binding, human; conditions: for Ratio DLG1_1/MBP: DLG1_PDZ_1, total Jurkat extract; for BI: DLG1_PDZ_1 bait vs MBP; for BI / pKd / Difference log2: total Jurkat extract; for pKd: DLG1_PDZ_1 bait, not filtered for significance (pKdsign N/D); for Difference log2: DLG1_PDZ_1 vs MBP
Excerpt: (§2) To further establish the repeatability and robustness of the nHU-MS assay, we repeated the experiments using a different mass spectrometer and six different PDZ domain baits taken from SCRIB (PDZ_1 and PDZ_2), discs large MAGUK scaffold protein 1 (DLG1, PDZ_1, and PDZ_2), Tax1 binding protein 3 (TAX1BP3), and SNX27 (fig. S3B and table S1). […] Of the studied baits, the PDZ domain of SNX27 turned out to be the most promiscuous with 103 statistically significant interaction partners (while 180 SNX27 binding partners were identified in total on the basis of the three independent nHU-MS experiments).
(§3) For saturating streptavidin resin with biotinylated peptides or biotin, 50 μl of streptavidin resin was mixed with biotin or peptide at 40 to 60 μM concentration in 6 to 6.5 resin volume for 60 min. To saturate streptavidin resin with biotinylated proteins, 50 μl of streptavidin resin (Streptavidin Sepharose High Performance, Cytiva) was mixed with biotinylated MBP or MBP-PDZ at 40 to 50 μM concentration in 20× resin volume for 60 min. After saturation, resins were washed a single time [10 resin volume, holdup buffer: 50 mM tris (pH 7.5), 300 mM NaCl, and 1 mM TCEP, 0.22-μm filtered] and were depleted with biotin (10 resin volume, 10 min, holdup buffer supplemented with 100 μM biotin). Last, resins were washed two times (10 resin volume, holdup buffer).
(§4) For single-point nHU experiments carried out at ~10 μM bait concentration, 50 μl of saturated streptavidin resin was mixed with 200 μl of cell lysate (2 mg/ml). Titration experiments were carried out by mixing control and bait-saturated resin and keeping the total resin volume constant; e.g., ~5 μM bait concentration can be achieved by mixing 25 μl of bait-saturated streptavidin resin with 25 μl of control resin and 200 μl of cell lysate (2 mg/ml). Control and bait-saturated resins were prepared in larger amounts, and a serial dilution was prepared with these presaturated resins to achieve different resin ratios.
(§5) Unless specified elswhere, the nHU mixture was incubated at 4°C for 2 hours. After the incubation ended, the resin was separated from the supernatant by a brief centrifugation (15 s, 2000 g). Then, half of the supernatant was removed by pipetting without any delay to avoid any resin contamination; e.g., 100 μl of supernatant is collected if 200 μl of cell lysate was used as analyte. Alternatively, the supernatant can be centrifuged an additional time to clarify it further, removing any possible resin contamination. In principle, the separation of the supernatant should be as fast as possible since any delay can perturb the equilibrium. […] Alternatively, the resin can be separated from the supernatant using filter plates (e.g., various products of Millipore, Burlington, MA) or spin columns (e.g., Pierce spin cups—cellulose acetate filter from Thermo Fisher Scientific, Waltham, MA) to achieve faster separation.
(§6) The nHU samples were precipitated with trichloroacetic acid (TCA) 20% overnight at 4°C and centrifuged at 14,000 rpm for 10 min at 4°C. The protein pellets were washed twice with 1 ml of cold acetone and air-dried. The protein extracts were solubilized in 8 M urea, reduced with 5 mM TCEP for 30 min, and alkylated with 10 mM iodoacetamide for 30 min in the dark. Double digestion was performed at 37°C with 500 ng of endoproteinase Lys-C (Wako, Richmond, USA) for 4 hours, followed by fourfold dilution and an overnight digestion with 500 ng of trypsin (Promega, Charbonnieres les Bains, France). Peptide mixtures were then desalted on a C18 spin-column and dried on a speed vacuum.
(§7) Samples were analyzed using an Ultimate 3000 nano-RSLC coupled in line via a nano-electrospray ionization source, with an LTQ-Orbitrap ELITE mass spectrometer (Thermo Fisher Scientific, San Jose, CA) or with the Orbitrap Exploris 480 mass spectrometer (Thermo Fisher Scientific, Bremen, Germany) equipped with a high field asymmetric ion mobility spectrometry (FAIMS) module. […]

[6] = system: DLG1_PDZ_2; assay: nHU-MS, DLG1_PDZ_2 bait, total Jurkat extracts (Exploris MS); assay type: binding, human; conditions: Jurkat extract; for Difference log2 / Ratio DLG1_2/MBP: DLG1_PDZ_2 bait vs MBP; for BI: DLG1_PDZ_2 bait
Excerpt: as §2, §3, §4, §5, §6, §7

[7] = system: SCRIB_PDZ_2; assay: nHU-MS, SCRIB_PDZ_2 bait, total Jurkat extracts (Exploris MS); assay type: binding, human; conditions: nHU-MS; for Ratio SCRIB_2/MBP: SCRIB_PDZ_2, total Jurkat extract; for BI: SCRIB_PDZ_2 bait vs MBP; for BI / Difference log2: total Jurkat extract; for Difference log2: SCRIB_PDZ_2 vs MBP
Excerpt: as §2, §3, §4, §5, §6, §7

[8] = system: TX1BP3_PDZ; assay: nHU-MS, TX1BP3_PDZ (TAX1BP3) bait, total Jurkat extracts (Exploris MS); assay type: binding, human; conditions: nHU-MS, total Jurkat extract; for BI: TX1BP3_PDZ bait vs MBP; for Difference log2: TX1BP3_PDZ vs MBP; for Ratio TX1BP3/MBP: TX1BP3_PDZ
Excerpt: as §2, §3, §4, §5, §6, §7

[9] = system: SCRIB_PDZ_1; assay: nHU-MS, SCRIB_PDZ_1 bait, total Jurkat extracts (Exploris MS); assay type: binding, human; conditions: nHU-MS; for Ratio SCRIB_1/MBP: SCRIB_PDZ_1, total Jurkat extract; for BI: SCRIB_PDZ_1 bait vs MBP; for Difference log2: SCRIB_PDZ_1 vs MBP
Excerpt: as §2, §3, §4, §5, §6, §7

[10] = system: SNX27_PDZ; assay: nHU-MS, SNX27_PDZ bait, total Jurkat extracts, series 2 (Exploris MS); assay type: binding, human; conditions: Jurkat, series 2, n = 3
Excerpt: as §2, §3, §4, §5, §6, §7

| pKd [5] | Compound | Ratio DLG1_1/MBP [5] | BI [5] | Difference log2 [5] | Difference log2 [6] | Ratio DLG1_2/MBP [6] | BI [6] | Ratio SCRIB_2/MBP [7] | BI [7] | Difference log2 [7] | BI [8] | Difference log2 [8] | Ratio TX1BP3/MBP [8] | Ratio SCRIB_1/MBP [9] | BI ([9]; total Jurkat extract) | Difference log2 ([9]; total Jurkat extract) | BI [10] | Difference log2 [10] | Ratio SNX27/MBP [10] | further results |
| --- | --- | --- | --- | --- | --- | --- | --- | --- | --- | --- | --- | --- | --- | --- | --- | --- | --- | --- | --- | --- |
|  | CC[C@H](C)[C@H](NC(=O)CCC(=O)NCCCOCCOCCOCCCNC(=O)CCCC[C@@H]1SC[C@@H]2NC(=O)N[C@@H]21)C(=O)N[C@@H](CC(=O)O)C(=O)N[C@@H](CC(N)=O)C(=O)N[C@@H](CC(=O)O)C(=O)N[C@H](C(=O)N[C@@H](CCC(=O)O)C(=O)N[C@@H](CO)C(=O)N[C@H](C(=O)N[C@@H](C)C(=O)N[C@@H](CC(C)C)C(=O)O)[C@@H](C)O)[C@@H](C)O [ARHGAP17] ({X1-Suc}-IDNDTESTAL-OH; C-terminus assumed) |  |  |  |  |  |  |  |  |  |  |  |  |  |  |  |  |  |  | pKd_PDZ1 [1]: 4.91; pKd_PDZ3 [2]: 4.57; pKd_PDZ2 [3]: 3.61; pKd (fragmentomic affinity) [4]: 4.97 |
| 3.493 | PPIAL4C: Peptidyl-prolyl cis-trans isomerase A-like 4C | 0.9698 | 0.03017 | -0.0442 | 0.05781 | 1.041 | -0.04089 | 1.136 | -0.1361 | 0.1841 | -0.05401 | 0.07589 | 1.054 | 0.9925 | 0.007486 | -0.01084 | -0.1115 | 0.1526 | 1.112 | pKd ([9]; SCRIB_PDZ_1 bait, total Jurkat extract, not filtered for significance (pKdsign N/D)): 2.878 |
| 4.3897 | PPIAL4H: Peptidyl-prolyl cis-trans isomerase A-like 4H | 0.8033 | 0.1967 | -0.3159 | 0.01399 | 1.01 | -0.009745 | 1.14 | -0.1396 | 0.1885 | -0.05277 | 0.07419 | 1.053 | 1.007 | -0.006606 | 0.009499 | 0.2686 | -0.4513 | 0.7314 | pKd ([10]; apparent, not filtered for significance): 4.566 |

Source: PMC9770967, “Native holdup (nHU) to measure binding affinities from cell extracts” (Science Advances, 2022)
